# Earlier results in patent publication US11103473B2, “Treatment and prevention of autism and autism spectrum disorders” (ASDERA LLC, priority 2013, dated 2021).
# Read-outs that look alike come from different tables or passages of the source.
# Key:
# [1] = for ulcerative index (UI): equimolar dose, prodrug vs parent NSAID
# [2] = prodrug vs parent DCF
# [3] = for Cmax (μg/ml) / Tmax (h) / % excreted (5 d) / t1/2 (h): mean; for Cmax (μg/ml) / Tmax (h): Ito (1994); for % excreted (5 d): Sato (1997)
# albumin = albumin (Homo sapiens, UniProt P02768)
# Chain of albumin (P02768 25-609): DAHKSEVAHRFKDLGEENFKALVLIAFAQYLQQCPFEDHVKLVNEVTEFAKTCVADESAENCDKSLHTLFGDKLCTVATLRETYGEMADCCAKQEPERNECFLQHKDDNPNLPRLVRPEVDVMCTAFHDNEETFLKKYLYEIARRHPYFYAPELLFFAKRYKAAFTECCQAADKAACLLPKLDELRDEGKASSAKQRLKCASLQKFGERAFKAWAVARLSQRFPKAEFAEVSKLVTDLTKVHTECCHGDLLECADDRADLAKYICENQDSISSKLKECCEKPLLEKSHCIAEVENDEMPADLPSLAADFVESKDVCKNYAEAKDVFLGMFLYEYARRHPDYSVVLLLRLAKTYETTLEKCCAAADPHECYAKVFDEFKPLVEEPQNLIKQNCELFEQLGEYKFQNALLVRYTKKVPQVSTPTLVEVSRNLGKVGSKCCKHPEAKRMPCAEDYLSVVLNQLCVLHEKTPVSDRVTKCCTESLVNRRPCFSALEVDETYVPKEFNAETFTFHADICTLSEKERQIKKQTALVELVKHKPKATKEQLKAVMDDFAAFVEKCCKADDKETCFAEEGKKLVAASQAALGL
# [4] = pH 7.1
# [5] = test system: animal models of seizures; conditions: in vivo
# [6] = not given; remark: listed apart in the source
# [7] = not given; remark: listed apart in the source
# [8] = not given; remark: listed apart in the source
# Mouse: writhing = conditions: relative to parent
# [9] = relative to parent, animal models
structure (smiles),measurement,setting,value
"CC(=O)Oc1ccccc1C(=O)O [Aspirin, 2-(acetyloxy)benzoic acid]",ulcerative index (UI),[1],57.4
"O=C(O)Cc1ccccc1Nc1c(Cl)cccc1Cl [DCF, 2-(2-[(2,6-dichlorophenyl)amino]phenyl)acetic acid]",gastric damage,[1]; 50 mg/kg,severe gastric damage
same,gastric damage,[1]; 200 mg/kg,markedly more damage
same,Cmax,[2],20190 ± 6010 ng/mL
"CC(C)c1c(CO)n(C)n(-c2ccccc2)c1=O [HMP, 3-hydroxymethyl propyphenazon]",average number of ulcers,[1]; in vivo,1.25
"Cc1cccc(Nc2ccccc2C(=O)O)c1C [MFA, 2-[(2,3-dimethylphenyl)amino]benzoic acid]",Cmax,[3]; Healthy Adults (18-56 yr),10000 ng/mL
same,Tmax,[3]; Healthy Adults (18-56 yr),2.0 h
same,t1/2,[3]; Healthy Adults (18-56 yr),2 to 4 h
same,Cmax (μg/ml),[3]; Preterm Children (0-5 d),3.8 (12) μg/ml
same,Tmax (h),[3]; Preterm Children (0-5 d),8.0 (12) h
same,% excreted (5 d),[3]; Preterm Children (0-5 d),16.6 (5) %
same,t1/2 (h),"[3]; Preterm Children (0-5 d), bottom: Sato (1997)",27.0 (5) h
same,t1/2 (h),"[3]; Preterm Children (0-5 d), top: Ito (1994)",21.7 (12) h
same,Cmax (μg/ml),[3]; Preterm Children (6-22 d),3.7 (5) μg/ml
same,Tmax (h),[3]; Preterm Children (6-22 d),6.8 (5) h
same,% excreted (5 d),[3]; Preterm Children (6-22 d),45.7 (1) %
same,t1/2 (h),"[3]; Preterm Children (6-22 d), bottom: Sato (1997)",8.4 (1) h
same,t1/2 (h),"[3]; Preterm Children (6-22 d), top: Ito (1994)",11.6 (5) h
same,bound to albumin,albumin,> 90%
same,water solubility,[4],0.004%
same,apparent volume of distribution (Vzss/F),500 mg oral dose,1.06 L/kg
same,time of peak levels (PL),adults,2 h
same,steady-state concentrations,"adults, 1 g 4x daily, reached on the 2nd day",20 µg/mL
same,plasma PL,after a 1 g oral dose,10 to 20 µg/mL
same,time to plasma PL,after a 1 g oral dose,2 to 4 h
same,drug accumulation,after multiple doses,no evidence of drug accumulation
same,elimination half-life,in vivo,~2 h and ≈ 2 h
same,"fecal route of elimination, share of the dose",mainly unconjugated 3-carboxy MFA,≤ 20%
same,dose excreted into the urine as glucuronide of,share of MFA dose per species,6%
same,dose excreted into the urine,"total, primarily as glucuronides",Approximately 52%
same,mean absorption,two 500 mg single oral dose studies,30.5 µg/h/mL
same,average number of ulcers,[1]; in vivo,3.17
same,efficacy in animal models of seizures,[5],shown efficacy
CC(=O)Nc1ccc(OC(=O)c2ccccc2Nc2cccc(C)c2C)cc1 [MFA-APAP Without spacer],Rat: Hint paw vs MFA,Rat: Hint paw; relative to parent,“better”
same,t1/2 [h] pH 7.5 (serum/plasma),[6],“shorter
same,GI risk vs MFA,[1]; in vivo,“no
same,t1/2 [h] pH 1.2 (SGF),[7]; simulated gi fluid,“suffi-
Cc1cccc(Nc2ccccc2C(=O)OCc2c(C(C)C)c(=O)n(-c3ccccc3)n2C)c1C [MFA-PPA Without spacer],Rat: Hint paw vs MFA,Rat: Hint paw; @2-6 h,≈60%
same,half-life in simulated intestinal fluid,"[8]; simulated gi fluid, pH 7.4",8.98 h
same,t1/2 [h] pH 7.5 (SIF),[8]; simulated gi fluid,9.0 h
same,Mouse: writhing vs MFA,Mouse: writhing,63%
same,GI risk vs MFA,[1]; in vivo,30%
same,average number of ulcers,[1]; in vivo,1.00
same,t1/2 [h] pH 1.2 (SGF),[7]; simulated gi fluid,18.7 h
same,half-life in simulated gastric fluid,"[7]; simulated gi fluid, pH 1.2",18.69 h
Cc1cccc(Nc2ccccc2C(=O)O[C@@H]2C[C@H](C)CC[C@H]2C(C)C)c1C [MFA-menthol],Rat: Hint paw vs MFA,Rat: Hint paw; relative to parent,115%
same,t1/2 [h] pH 7.5 (SIF),[8]; simulated intestinal fluid,8.9 h
same,Mouse: writhing vs MFA,Mouse: writhing,115%
same,ulcer index vs parent drug,[1]; in vivo,better ulcer index than the parent drug
same,GI risk vs MFA,[1]; [9],50%
same,t1/2 [h] pH 1.2 (SGF),[7]; simulated gastric fluid,20.8 h
Cc1ccc(C(C)C)c(OC(=O)c2ccccc2Nc2cccc(C)c2C)c1 [MFA-thymol],Rat: Hint paw vs MFA,Rat: Hint paw; relative to parent,125%
same,t1/2 [h] pH 7.5 (SIF),[8]; simulated gi fluid,7.1 h
same,Mouse: writhing vs MFA,Mouse: writhing,150%
same,ulcer index vs parent drug,[1]; in vivo,better ulcer index than the parent drug
same,GI risk vs MFA,[1]; [9],60%
same,t1/2 [h] pH 1.2 (SGF),[7]; simulated gi fluid,23.1 h
"CC(C)Cc1ccc(C(C)C(=O)O)cc1 (stereo not shown) [ibuprofen, 2-[4-(2-methylpropyl)phenyl]propanoic acid]",ulcerative index (UI),[1],45.8
